Data from ChEMBL document CHEMBL5465560, “Selectivity Literature for EUbOPEN Chemogenomic Library” (2024).
One block for each compound: values may come before it.

Columns and labels:
[1] = target: Serine/threonine-protein kinase 38-like (Homo sapiens) (UniProt Q9Y2H1); experiment: Selectivity interaction (Ambit KINOMEscan and KiNATiv profiling in Jurkat cells) EUB0000090b STK38L; assay type: cell-based; details: at 1 µM
[2] = target: Nuclear body protein SP140 (Homo sapiens) (UniProt Q13342); experiment: Selectivity interaction (Bromodomain panel (DSF asssay)) EUB0000270b SP140
Nuclear body protein SP140 (Homo sapiens), sequence (Q13342 whole entry): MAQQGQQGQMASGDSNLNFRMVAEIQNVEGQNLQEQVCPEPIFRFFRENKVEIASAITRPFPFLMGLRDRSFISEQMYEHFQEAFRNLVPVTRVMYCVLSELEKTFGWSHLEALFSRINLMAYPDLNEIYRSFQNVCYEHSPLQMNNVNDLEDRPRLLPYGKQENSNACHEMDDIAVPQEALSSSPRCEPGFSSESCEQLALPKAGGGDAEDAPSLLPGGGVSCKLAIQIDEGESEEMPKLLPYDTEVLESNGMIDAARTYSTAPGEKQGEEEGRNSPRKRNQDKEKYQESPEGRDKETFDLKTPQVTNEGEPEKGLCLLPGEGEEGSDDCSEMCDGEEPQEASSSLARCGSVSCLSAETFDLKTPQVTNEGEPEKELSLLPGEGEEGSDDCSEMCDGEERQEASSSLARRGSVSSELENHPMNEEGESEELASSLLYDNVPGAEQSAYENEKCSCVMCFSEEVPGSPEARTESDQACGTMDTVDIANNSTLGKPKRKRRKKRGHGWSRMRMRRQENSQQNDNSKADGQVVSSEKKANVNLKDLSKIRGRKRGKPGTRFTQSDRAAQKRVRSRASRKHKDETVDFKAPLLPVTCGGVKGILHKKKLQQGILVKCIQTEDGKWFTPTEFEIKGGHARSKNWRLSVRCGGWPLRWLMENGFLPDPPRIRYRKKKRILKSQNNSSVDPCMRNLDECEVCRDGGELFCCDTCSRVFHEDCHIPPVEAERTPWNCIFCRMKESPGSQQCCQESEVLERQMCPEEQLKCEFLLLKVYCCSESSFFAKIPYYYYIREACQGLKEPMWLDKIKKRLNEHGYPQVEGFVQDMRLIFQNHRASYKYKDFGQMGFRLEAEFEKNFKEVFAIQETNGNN

[3] = test system: Dual specificity mitogen-activated protein kinase kinase 6 (Homo sapiens), P52564 [S207E,T211E]; experiment: (§1) Selectivity interaction (LanthaScreen Eu Kinase Binding Assay) EUB0001632a MAP2K6; details: at 10 µM
Dual specificity mitogen-activated protein kinase kinase 6 (Homo sapiens), P52564 [S207E,T211E], sequence (P52564 whole entry S207E/T211E): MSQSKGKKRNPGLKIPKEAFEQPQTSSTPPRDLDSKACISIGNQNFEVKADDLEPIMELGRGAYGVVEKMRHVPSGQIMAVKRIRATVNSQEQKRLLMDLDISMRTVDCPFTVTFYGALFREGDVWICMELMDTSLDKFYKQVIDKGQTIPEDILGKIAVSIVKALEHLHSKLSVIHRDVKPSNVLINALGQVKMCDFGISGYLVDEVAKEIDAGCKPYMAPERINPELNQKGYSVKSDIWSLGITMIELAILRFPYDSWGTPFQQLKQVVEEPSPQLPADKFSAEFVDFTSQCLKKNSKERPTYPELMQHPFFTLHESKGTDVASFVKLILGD

[4] = target: T1, Dual specificity mitogen-activated protein kinase kinase 6 (Homo sapiens) (UniProt P52564); experiment: as §1; details: at 10 µM
T1 sequence (whole entry): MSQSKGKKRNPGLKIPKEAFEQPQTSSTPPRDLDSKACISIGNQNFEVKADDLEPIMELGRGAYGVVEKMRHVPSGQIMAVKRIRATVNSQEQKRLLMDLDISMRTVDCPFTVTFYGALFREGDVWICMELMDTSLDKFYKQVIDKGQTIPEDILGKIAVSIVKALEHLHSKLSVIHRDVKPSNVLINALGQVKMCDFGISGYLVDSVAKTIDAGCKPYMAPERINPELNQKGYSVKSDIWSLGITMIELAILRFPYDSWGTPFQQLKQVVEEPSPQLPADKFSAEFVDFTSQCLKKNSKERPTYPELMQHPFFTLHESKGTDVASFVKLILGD

[5] = target: T2, Serine/threonine-protein kinase 3 (Homo sapiens) (UniProt Q13188); experiment: Selectivity interaction (Kinase panel (Z-LYTE Assay)) EUB0001632a STK3; details: at 10 µM
T2 sequence (whole entry): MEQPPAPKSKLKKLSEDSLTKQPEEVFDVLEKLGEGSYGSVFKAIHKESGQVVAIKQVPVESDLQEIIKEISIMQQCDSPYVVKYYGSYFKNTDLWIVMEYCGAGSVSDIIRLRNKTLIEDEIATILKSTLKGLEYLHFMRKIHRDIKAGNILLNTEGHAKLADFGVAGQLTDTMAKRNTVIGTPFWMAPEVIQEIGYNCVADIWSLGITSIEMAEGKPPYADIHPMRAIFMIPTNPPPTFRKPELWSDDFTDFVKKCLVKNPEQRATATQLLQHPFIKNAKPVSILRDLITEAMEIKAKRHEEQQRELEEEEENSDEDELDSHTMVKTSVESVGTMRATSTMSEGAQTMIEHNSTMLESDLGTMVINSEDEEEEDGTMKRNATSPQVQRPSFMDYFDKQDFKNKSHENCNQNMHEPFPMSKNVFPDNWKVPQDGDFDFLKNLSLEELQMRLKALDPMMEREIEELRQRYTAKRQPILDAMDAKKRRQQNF

[6] = target: MAP kinase-activated protein kinase 2 (Homo sapiens, UniProt P49137); experiment: Selectivity interaction (KinomeScan (DiscoverX)) EUB0001079a MAPKAPK2; details: at 1 µM
MAP kinase-activated protein kinase 2, sequence (P49137 whole entry, looked up): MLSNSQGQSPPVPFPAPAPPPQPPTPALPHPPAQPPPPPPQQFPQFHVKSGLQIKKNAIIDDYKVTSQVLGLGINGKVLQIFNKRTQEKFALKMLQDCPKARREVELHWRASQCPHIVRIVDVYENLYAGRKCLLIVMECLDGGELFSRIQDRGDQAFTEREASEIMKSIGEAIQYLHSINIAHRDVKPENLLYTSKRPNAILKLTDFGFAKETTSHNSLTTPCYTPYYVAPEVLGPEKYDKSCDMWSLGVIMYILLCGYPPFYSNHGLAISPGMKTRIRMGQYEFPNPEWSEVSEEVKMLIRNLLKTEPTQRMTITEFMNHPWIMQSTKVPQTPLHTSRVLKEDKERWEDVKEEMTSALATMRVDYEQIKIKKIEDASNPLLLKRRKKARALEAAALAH

[7] = target: Cyclin-dependent kinase 18 (Homo sapiens) (UniProt Q07002); experiment: Selectivity interaction (KinomeScan (DiscoverX)) EUB0000092b CDK18; details: at 10 µM
Cyclin-dependent kinase 18 (Homo sapiens), sequence (Q07002 whole entry): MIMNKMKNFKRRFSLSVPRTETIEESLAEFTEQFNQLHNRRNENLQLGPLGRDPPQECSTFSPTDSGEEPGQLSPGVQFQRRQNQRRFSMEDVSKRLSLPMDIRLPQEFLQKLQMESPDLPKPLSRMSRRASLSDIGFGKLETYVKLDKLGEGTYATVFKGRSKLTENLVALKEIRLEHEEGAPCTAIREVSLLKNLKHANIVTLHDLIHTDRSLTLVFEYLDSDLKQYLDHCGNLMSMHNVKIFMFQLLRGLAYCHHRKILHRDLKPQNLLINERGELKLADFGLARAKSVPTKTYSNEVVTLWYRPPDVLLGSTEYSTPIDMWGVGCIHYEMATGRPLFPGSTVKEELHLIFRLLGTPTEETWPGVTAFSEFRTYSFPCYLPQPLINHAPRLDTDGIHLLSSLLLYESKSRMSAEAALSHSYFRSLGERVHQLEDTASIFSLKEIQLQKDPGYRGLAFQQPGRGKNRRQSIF

[8] = target: Dual specificity protein kinase CLK4 (Homo sapiens, UniProt Q9HAZ1); experiment: Selectivity interaction (KinomeScan (DiscoverX)) EUB0001619a CLK4; details: at 1 µM
Dual specificity protein kinase CLK4, sequence (Q9HAZ1 whole entry, looked up): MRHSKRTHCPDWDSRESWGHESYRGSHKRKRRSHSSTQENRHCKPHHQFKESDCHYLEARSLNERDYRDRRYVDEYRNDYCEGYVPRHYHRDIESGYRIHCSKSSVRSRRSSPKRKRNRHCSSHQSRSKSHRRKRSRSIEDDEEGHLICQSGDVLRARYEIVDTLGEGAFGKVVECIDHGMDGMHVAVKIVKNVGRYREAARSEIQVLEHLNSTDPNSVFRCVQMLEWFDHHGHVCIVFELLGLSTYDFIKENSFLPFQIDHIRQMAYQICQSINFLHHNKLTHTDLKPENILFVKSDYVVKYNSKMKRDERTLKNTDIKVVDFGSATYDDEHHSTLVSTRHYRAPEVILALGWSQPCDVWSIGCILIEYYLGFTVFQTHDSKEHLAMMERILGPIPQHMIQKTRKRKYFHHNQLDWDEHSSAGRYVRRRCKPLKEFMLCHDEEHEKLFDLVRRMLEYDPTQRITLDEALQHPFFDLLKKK

[9] = target: T3, Inhibitor of nuclear factor kappa-B kinase subunit alpha (Homo sapiens) (UniProt O15111); experiment: Selectivity interaction (Kinase panel (KiNativ target engagement assay in Jurkat cells)) EUB0001635a CHUK; assay type: cell-based; details: Selectivity number of off-targets 0.0, Selectivity number of targets 233.0, Source Knowledge https://www.sciencedirect.com/science/article/pii/S2451945619300674?via%3Dihub, at 1 µM
T3 sequence (whole entry): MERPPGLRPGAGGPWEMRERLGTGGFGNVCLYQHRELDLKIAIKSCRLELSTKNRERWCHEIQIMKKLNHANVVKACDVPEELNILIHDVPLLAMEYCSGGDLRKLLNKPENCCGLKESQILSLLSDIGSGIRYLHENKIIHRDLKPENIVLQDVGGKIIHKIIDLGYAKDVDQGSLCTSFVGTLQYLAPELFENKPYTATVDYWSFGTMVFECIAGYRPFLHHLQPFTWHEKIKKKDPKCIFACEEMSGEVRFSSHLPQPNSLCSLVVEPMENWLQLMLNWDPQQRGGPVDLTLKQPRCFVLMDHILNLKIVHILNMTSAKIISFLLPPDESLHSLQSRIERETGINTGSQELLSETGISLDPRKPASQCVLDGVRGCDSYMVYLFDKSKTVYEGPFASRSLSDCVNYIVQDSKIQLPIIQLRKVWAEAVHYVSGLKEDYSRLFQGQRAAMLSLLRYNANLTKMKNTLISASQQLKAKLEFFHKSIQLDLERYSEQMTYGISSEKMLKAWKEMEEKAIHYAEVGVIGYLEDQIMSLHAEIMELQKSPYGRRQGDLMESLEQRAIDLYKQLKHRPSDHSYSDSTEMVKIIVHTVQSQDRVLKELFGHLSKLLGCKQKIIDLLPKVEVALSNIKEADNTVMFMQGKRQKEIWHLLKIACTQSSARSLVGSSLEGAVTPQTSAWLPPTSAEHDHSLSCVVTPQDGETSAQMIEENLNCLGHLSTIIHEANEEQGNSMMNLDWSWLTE

[10] = target: Casein kinase I isoform alpha (Homo sapiens, UniProt P48729); experiment: Selectivity interaction (KinomeScan (DiscoverX)) EUB0000666a CSNK1A1; details: at 10 µM
Casein kinase I isoform alpha, sequence (P48729 2-337 limits assumed): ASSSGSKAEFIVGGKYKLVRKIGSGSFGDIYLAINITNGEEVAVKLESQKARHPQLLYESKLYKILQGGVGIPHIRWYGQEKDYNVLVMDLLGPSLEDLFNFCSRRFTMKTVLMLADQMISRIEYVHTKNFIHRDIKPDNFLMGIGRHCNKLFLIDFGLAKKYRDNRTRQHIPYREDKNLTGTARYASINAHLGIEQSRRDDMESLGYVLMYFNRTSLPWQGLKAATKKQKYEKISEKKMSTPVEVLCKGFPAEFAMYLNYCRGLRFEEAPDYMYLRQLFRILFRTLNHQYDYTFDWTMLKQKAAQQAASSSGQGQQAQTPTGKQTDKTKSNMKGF

[11] = target: Acetylcholine receptor subunit alpha (Homo sapiens, UniProt P02708); experiment: Selectivity interaction (Panel of kinases, GPCRs, ion channels and transporters (enzymatic assay)) EUB0000223bCl CHRNA1
Acetylcholine receptor subunit alpha, sequence (P02708 whole entry): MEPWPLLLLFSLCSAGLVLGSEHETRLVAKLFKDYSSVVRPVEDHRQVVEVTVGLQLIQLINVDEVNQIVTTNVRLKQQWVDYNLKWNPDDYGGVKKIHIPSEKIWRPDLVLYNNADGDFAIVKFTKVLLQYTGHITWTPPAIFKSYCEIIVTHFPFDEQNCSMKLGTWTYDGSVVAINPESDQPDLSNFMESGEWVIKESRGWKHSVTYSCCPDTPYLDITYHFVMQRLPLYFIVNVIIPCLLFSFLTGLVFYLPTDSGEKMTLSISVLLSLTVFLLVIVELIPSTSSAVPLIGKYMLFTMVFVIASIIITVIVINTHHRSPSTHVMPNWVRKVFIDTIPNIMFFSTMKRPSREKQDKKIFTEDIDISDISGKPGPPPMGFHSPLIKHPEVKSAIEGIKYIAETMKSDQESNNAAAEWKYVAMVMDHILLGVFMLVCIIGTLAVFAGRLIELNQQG

Serine/threonine-protein kinase 38-like (Homo sapiens), sequence (Q9Y2H1 2-464 limits assumed): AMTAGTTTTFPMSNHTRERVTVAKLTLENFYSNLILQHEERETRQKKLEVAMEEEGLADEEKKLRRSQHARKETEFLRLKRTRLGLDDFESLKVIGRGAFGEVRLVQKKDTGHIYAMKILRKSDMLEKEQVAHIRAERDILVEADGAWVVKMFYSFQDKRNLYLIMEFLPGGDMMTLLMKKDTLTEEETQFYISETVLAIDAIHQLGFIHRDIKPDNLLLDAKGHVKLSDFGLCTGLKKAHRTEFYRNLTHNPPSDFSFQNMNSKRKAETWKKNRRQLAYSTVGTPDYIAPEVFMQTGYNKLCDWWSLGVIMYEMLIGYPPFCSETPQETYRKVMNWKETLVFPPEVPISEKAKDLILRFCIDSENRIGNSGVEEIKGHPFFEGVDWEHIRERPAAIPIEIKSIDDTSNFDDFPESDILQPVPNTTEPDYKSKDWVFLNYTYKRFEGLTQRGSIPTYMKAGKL

SMILES: CN(C)C/C=C/C(=O)Nc1ccc(C(=O)N2CCCC(Nc3ncc(Cl)c(-c4c[nH]c5ccccc45)n3)C2)cc1 (stereo unspecified)
% of control [1]: 82%

dTM [2]: -1.11 K
SMILES: Cc1cc(CN)cc(C)c1-c1ncn(C)c1-c1cncn1C

% of inhibition [3]: -8.6%
% of inhibition [4]: -35%
% of control [5]: 0.418%
SMILES: Cn1cc(-n2cnc3c(NCc4nc5cc(Cl)c(Cl)cc5[nH]4)nc(N4CCOCC4)nc32)cn1

SMILES: Nc1cnc(N2CCc3cc(S(=O)(=O)Nc4c(F)cc(Cl)cc4F)cc(N4CCCC4=O)c32)nc1 [TP-020n]
% of control [6]: 100%

SMILES: CCC(=O)N1CCN(c2ccc(-n3c(=O)ccc4cnc5ccc(-c6cnc7ccccc7c6)cc5c43)cc2C(F)(F)F)CC1
% of control [7]: 97%

SMILES: N#Cc1cccc(-c2c[nH]c3ncnc(N4CCOCC4)c23)c1
% of control [8]: 38%

SMILES: C=CC(=O)Nc1ccc(C(=O)Nc2[nH]nc3c2CN(C(=O)N[C@H](CN(C)C)c2ccccc2)C3(C)C)cc1
% of engagement [9]: -7.3%

SMILES: O=C(NOC[C@H](O)CO)c1ccc(F)c(F)c1Nc1ccc(I)cc1F
% of control [10]: 100%

SMILES: COc1cc(C(=O)N2CC[C@@H](O)[C@@H](N)C2)cc2nc(-c3cc4ccccc4n3CC3CC3)n(C)c12
pXC50 [11]: 5.8 M
